Paper PMC7310518 (Nature chemical biology, 2017)
Like-named read-outs stand apart in the source and are kept apart here. Blank lines part the entries; values can stand above or below the molecule they belong to.

Columns and labels:
[1] = biological target: T1, AaBioW (pimeloyl-CoA synthetase BioW) (Aquifex aeolicus, UniProt O67575); assay: co-crystal structure with CoA; assay type: binding
[2] = biological target: T1, AaBioW (pimeloyl-CoA synthetase BioW); assay: ITC; assay type: binding
[3] = biological target: T1, AaBioW (pimeloyl-CoA synthetase BioW); assay: ITC; assay type: binding; remark: listed apart in the source
[4] = biological target: T1, AaBioW (pimeloyl-CoA synthetase BioW); assay: TLC proofreading assay; assay type: biochemical
[5] = biological target: T1, AaBioW (pimeloyl-CoA synthetase BioW); assay: TLC adenylation/proofreading assay; assay type: biochemical

T1 sequence (O67575 whole entry): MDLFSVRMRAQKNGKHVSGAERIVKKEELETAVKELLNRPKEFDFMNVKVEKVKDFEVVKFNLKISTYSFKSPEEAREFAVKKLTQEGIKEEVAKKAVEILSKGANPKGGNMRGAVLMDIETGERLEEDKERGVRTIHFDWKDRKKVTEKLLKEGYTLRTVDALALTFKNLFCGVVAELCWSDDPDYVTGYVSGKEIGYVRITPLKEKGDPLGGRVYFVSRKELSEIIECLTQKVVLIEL

co-crystal structure with CoA (2.25 Å) [1]: AaBioW with CoA–AMP (5TVA)
SMILES: Nc1ncnc2c1ncn2[C@@H]1O[C@H](COP(=O)(O)O)[C@@H](O)[C@H]1O [AMP]

SMILES: Nc1ncnc2c1ncn2[C@@H]1O[C@H](COP(=O)(O)OP(=O)(O)OP(=O)(O)O)[C@@H](O)[C@H]1O [ATP]
Kd [2]: 13 ± 3 µM

Kd [3]: 14 ± 2.5 µM
SMILES: CC(C)(COP(=O)(O)OP(=O)(O)OC[C@H]1O[C@@H](n2cnc3c(N)ncnc32)[C@H](O)[C@@H]1OP(=O)(O)O)[C@@H](O)C(=O)NCCC(=O)NCCS [CoA]

SMILES: O=C(O)CCCC(=O)O [compound 3, glutarate]
TLC proofreading assay (AMP accumulation) [4]: reactions carried out using glutarate in the absence of CoA resulted only in the accumulation of AMP

SMILES: O=C(O)CCCCC(=O)O [compound 4, adipate]
TLC adenylation/proofreading assay [5]: adenylated intermediates can be observed for the cognate C7, as well as for the noncognate C6 and C8 substrates

SMILES: O=C(O)CCCCCCC(=O)O [compound 5, suberate]
TLC adenylation/proofreading assay [5]: adenylated intermediates can be observed for the cognate C7, as well as for the noncognate C6 and C8 substrates
